Assay results published in PubChem BioAssay AID328 (DTP/NCI, 2004).
“And” between values parts separate entries of the source, which are not always exact repeats. Identical values can stand only once. Toxic doses and inconclusive results are not listed.

Test system: BDF1 mice, P388 leukemia ip, median survival T/C
Test: NCI In Vivo Anticancer Drug Screen. Data for tumor model P388 Leukemia (intraperitoneal) in B6D2F1 (BDF1) mice
Conditions: endpoint: median survival time, higher = longer survival
How it was run: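 Survival ratio, drug arm over vehicle arm, in mice with a transplanted tumour.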

[1] = dose: 100.0 mg/kg/injection, schedule: Q04DX003 (ip), vehicle: saline
[2] = dose: 400.0 mg/kg/injection, schedule: Q04DX003 (ip), vehicle: saline
[3] = dose: 200.0 mg/kg/injection, schedule: Q04DX003 (ip), vehicle: saline
[4] = dose: 50.0 mg/kg/injection, schedule: Q01DX009 (ip), vehicle: saline with Tween-80
[5] = dose: 100.0 mg/kg/injection, schedule: Q01DX009 (ip), vehicle: saline
[6] = dose: 200.0 mg/kg/injection, schedule: Q01DX009 (ip), vehicle: saline
[7] = dose: 25.0 mg/kg/injection, schedule: Q01DX009 (ip), vehicle: saline
[8] = dose: 50.0 mg/kg/injection, schedule: Q01DX009 (ip), vehicle: saline
[9] = dose: 100.0 mg/kg/injection, schedule: Q01DX009 (ip), vehicle: saline with Tween-80
[10] = dose: 100.0 mg/kg/injection, schedule: Q04DX003 (ip), vehicle: saline with Tween-80
[11] = dose: 200.0 mg/kg/injection, schedule: Q01DX009 (ip), vehicle: saline with Tween-80
[12] = dose: 200.0 mg/kg/injection, schedule: Q04DX003 (ip), vehicle: saline with Tween-80
[13] = dose: 400.0 mg/kg/injection, schedule: Q04DX003 (ip), vehicle: saline with Tween-80

Structure (SMILES): CC[C@@]1(O)C[C@H](OC2CC(N(C)C)C(OC3CC(O)C(OC4CC(O)C(O)C(C)O4)C(C)O3)C(C)O2)c2c(cc3c(c2O)C(=O)c2c(O)ccc(O)c2C3=O)[C@H]1C(=O)OC (stereo partly drawn)
- T/C (dose: 1.08 mg/kg/injection, schedule: Q04DX003 (ip), vehicle: water): 185 % of control
- T/C (dose: 1.8 mg/kg/injection, schedule: Q04DX003 (ip), vehicle: water): 194 % of control
- T/C (dose: 1.9 mg/kg/injection, schedule: Q01DX001 (ip), vehicle: other): 169 % of control
- T/C (dose: 3.8 mg/kg/injection, schedule: Q01DX001 (ip), vehicle: other): 196 % of control
- T/C (dose: 5.0 mg/kg/injection, schedule: Q04DX003 (ip), vehicle: water): 101 % of control
- T/C (dose: 7.5 mg/kg/injection, schedule: Q01DX001 (ip), vehicle: other): 198 % of control

Structure (SMILES): O=NN(CCBr)C(=O)NCCBr
- T/C (dose: 30.0 mg/kg/injection, schedule: Q01DX009 (ip), vehicle: gum acacia): 158 % of control
- T/C (dose: 44.0 mg/kg/injection, schedule: Q01DX009 (ip), vehicle: gum acacia): 158 % of control
- T/C (dose: 50.0 mg/kg/injection, schedule: Q01DX009 (ip), vehicle: gum acacia): 196 % of control
- T/C (dose: 67.0 mg/kg/injection, schedule: Q01DX009 (ip), vehicle: gum acacia): 169 % of control and 191 % of control
- T/C (dose: 67.0 mg/kg/injection, schedule: Q04DX003 (ip), vehicle: gum acacia): 165 % of control
- T/C (dose: 100.0 mg/kg/injection, schedule: Q01DX009 (ip), vehicle: Klucel (hydroxypropylcellulose) (HPC)): 112 % of control
- T/C (dose: 100.0 mg/kg/injection, schedule: Q01DX009 (ip), vehicle: gum acacia): 192 % of control and 200 % of control
- T/C (dose: 100.0 mg/kg/injection, schedule: Q04DX003 (ip), vehicle: gum acacia): 173 % of control
- T/C [1]: 118 % of control
- T/C (dose: 150.0 mg/kg/injection, schedule: Q01DX009 (ip), vehicle: gum acacia): 226 % of control
- T/C (dose: 150.0 mg/kg/injection, schedule: Q04DX003 (ip), vehicle: gum acacia): 230 % of control
- T/C (dose: 200.0 mg/kg/injection, schedule: Q01DX009 (ip), vehicle: Klucel (hydroxypropylcellulose) (HPC)): 154 % of control
- T/C (dose: 400.0 mg/kg/injection, schedule: Q01DX009 (ip), vehicle: Klucel (hydroxypropylcellulose) (HPC)): 170 % of control
- T/C [2]: 190 % of control

Structure (SMILES): COC(=O)C(CC(C)C)NC(=O)C(Cc1ccc(Oc2ccc([N+](=O)[O-])cc2[N+](=O)[O-])cc1)NC=O (stereo not drawn)
- T/C (dose: 25.0 mg/kg/injection, schedule: Q04DX003 (ip), vehicle: water): 95 % of control
- T/C (dose: 300.0 mg/kg/injection, schedule: Q04DX003 (ip), vehicle: water): 99 % of control
- T/C (dose: 400.0 mg/kg/injection, schedule: Q04DX003 (ip), vehicle: water): 96 % of control and 98 % of control and 112 % of control

Structure (SMILES): CNCc1cccs1
- T/C [1]: 106 % of control
- T/C [3]: 117 % of control
- T/C [2]: 100 % of control

Structure (SMILES): CC[N-]c1nnnn1CC.[Au+].c1ccc([PH+](c2ccccc2)c2ccccc2)cc1
- T/C (dose: 12.5 mg/kg/injection, schedule: Q01DX001 (ip), vehicle: saline with Tween-80): 100 % of control
- T/C (dose: 25.0 mg/kg/injection, schedule: Q01DX001 (ip), vehicle: saline with Tween-80): 111 % of control

Structure (SMILES): COc1c(C)c2c3c4c1C(=O)C(=CC4=O)NC(=O)/C(C)=C\C=C\C(C)C1OC(C)(C)OC(C1C)C(C)C(OC(C)=O)C(C)C(OC)/C=C/OC(C)(O2)C3=O (stereo not drawn)
- T/C (dose: 12.5 mg/kg/injection, schedule: Q01DX009 (ip), vehicle: saline with Tween-80): 109 % of control
- T/C (dose: 25.0 mg/kg/injection, schedule: Q01DX009 (ip), vehicle: saline with Tween-80): 113 % of control
- T/C [4]: 105 % of control and 117 % of control

Structure (SMILES): CC1(C)Oc2nc(N)nc(N)c2C1c1ccc(Cl)cc1 (stereo not drawn)
- T/C (dose: 100.0 mg/kg/injection, schedule: Q04DX003 (ip), vehicle: Klucel (hydroxypropylcellulose) (HPC)): 104 % of control
- T/C (dose: 200.0 mg/kg/injection, schedule: Q04DX003 (ip), vehicle: Klucel (hydroxypropylcellulose) (HPC)): 100 % of control
- T/C (dose: 400.0 mg/kg/injection, schedule: Q04DX003 (ip), vehicle: Klucel (hydroxypropylcellulose) (HPC)): 95 % of control

Structure (SMILES): NC(=O)CNCCS(=O)(=O)O
- T/C [5]: 91 % of control
- T/C [1]: 100 % of control
- T/C [6]: 87 % of control
- T/C [3]: 109 % of control
- T/C [2]: 104 % of control

Structure (SMILES): O=C1C2C(c3cc4ccccc4n31)N2c1ccccc1 (stereo not drawn)
- T/C (dose: 0.03 mg/kg/injection, schedule: Q01DX010 (ip), vehicle: water): 110 % of control
- T/C (dose: 0.06 mg/kg/injection, schedule: Q01DX010 (ip), vehicle: water): 94 % of control
- T/C (dose: 0.13 mg/kg/injection, schedule: Q01DX010 (ip), vehicle: water): 94 % of control
- T/C (dose: 0.25 mg/kg/injection, schedule: Q01DX010 (ip), vehicle: water): 94 % of control
- T/C (dose: 0.5 mg/kg/injection, schedule: Q01DX010 (ip), vehicle: water): 105 % of control
- T/C (dose: 1.0 mg/kg/injection, schedule: Q01DX010 (ip), vehicle: water): 105 % of control
- T/C (dose: 2.0 mg/kg/injection, schedule: Q01DX010 (ip), vehicle: water): 105 % of control

Structure (SMILES): CCOC(=O)Nc1cc(NC(C)CCCN(CC)CC)c2ncc(-c3ccccc3)nc2n1 (stereo not drawn) (tested in a mixture with another compound)
- T/C [7]: 100 % of control
- T/C (dose: 25.0 mg/kg/injection, schedule: Q04DX003 (ip), vehicle: saline): 104 % of control
- T/C [8]: 100 % of control
- T/C (dose: 50.0 mg/kg/injection, schedule: Q04DX003 (ip), vehicle: saline): 100 % of control
- T/C [5]: 104 % of control
- T/C [1]: 104 % of control

Structure (SMILES): O=CNC(Cc1ccc(O)cc1)C(=O)O (stereo not drawn)
- T/C [1]: 110 % of control
- T/C [3]: 100 % of control
- T/C [2]: 100 % of control

Structure (SMILES): CN(N=O)C(N)=O
- T/C (dose: 25.0 mg/kg/injection, schedule: Q04DX003 (ip), vehicle: saline with Tween-80): 150 % of control
- T/C (dose: 37.5 mg/kg/injection, schedule: Q04DX003 (ip), vehicle: saline with Tween-80): 154 % of control

Structure (SMILES): O=C1C(N2CCOCC2)=Cc2cccc3cccc1c23
- T/C (dose: 50.0 mg/kg/injection, schedule: Q04DX003 (ip), vehicle: saline with Tween-80): 99 % of control
- T/C [9]: 101 % of control
- T/C [10]: 96 % of control
- T/C [11]: 90 % of control
- T/C [12]: 88 % of control
- T/C [13]: 99 % of control

Structure (SMILES): CC(=O)C(c1ccccc1)[N+](C)(C)C (stereo not drawn)
- T/C (dose: 100.0 mg/kg/injection, schedule: Q04DX003 (ip), vehicle: other): 108 % of control

Structure (SMILES): C=C(C)C1CCC2=CC(CC3(C)OC3C3=CC(C(=O)OC)=C(C1)O3)OC2=O (stereo not drawn)
- T/C (dose: 50.0 mg/kg/injection, schedule: Q01DX009 (ip), vehicle: Klucel (hydroxypropylcellulose) (HPC)): 86 % of control

Structure (SMILES): Cc1cc(=O)c(O)c(N(C)C)o1
- T/C [4]: 95 % of control
- T/C [9]: 106 % of control
- T/C [11]: 102 % of control

Structure (SMILES): ClCCCCCCCCc1ccccc1
- T/C (dose: 12.5 mg/kg/injection, schedule: Q01DX009 (ip), vehicle: saline): 102 % of control
- T/C [7]: 100 % of control
- T/C (dose: 44.0 mg/kg/injection, schedule: Q04DX003 (ip), vehicle: saline with Tween-80): 122 % of control
- T/C [8]: 107 % of control
- T/C (dose: 66.0 mg/kg/injection, schedule: Q04DX003 (ip), vehicle: saline with Tween-80): 100 % of control
- T/C [5]: 100 % of control
- T/C [10]: 118 % of control
- T/C [6]: 108 % of control

Structure (SMILES): CCS(=O)C(C)(C)C (stereo not drawn)
- T/C [4]: 102 % of control
- T/C [9]: 102 % of control
- T/C [11]: 102 % of control

Structure (SMILES): O=C1CSC(C23CC4CC(CC(C4)C2)C3)N1c1nccs1 (stereo not drawn)
- T/C [4]: 92 % of control
- T/C [9]: 90 % of control

Structure (SMILES): CCCCCCCCCCCCCCCCOc1ccc(C(C)(C)C)cc1
- T/C (dose: 37.5 mg/kg/injection, schedule: Q01DX001 (ip), vehicle: saline sonified): 100 % of control
- T/C (dose: 75.0 mg/kg/injection, schedule: Q01DX001 (ip), vehicle: saline sonified): 100 % of control
- T/C (dose: 150.0 mg/kg/injection, schedule: Q01DX001 (ip), vehicle: saline sonified): 100 % of control

Structure (SMILES): [CH3][Hg][Cl]
- T/C (dose: 0.25 mg/kg/injection, schedule: Q01DX009 (ip), vehicle: saline): 109 % of control
- T/C (dose: 0.5 mg/kg/injection, schedule: Q01DX009 (ip), vehicle: saline): 100 % of control
- T/C (dose: 1.0 mg/kg/injection, schedule: Q01DX009 (ip), vehicle: saline): 100 % of control

Structure (SMILES): COc1cc(OC)cc(C2N(Cc3ccc(OC)c(OC)c3)CCN2Cc2ccc(OC)c(OC)c2)c1
- T/C [9]: 100 % of control
- T/C [10]: 100 % of control
- T/C [11]: 109 % of control
- T/C [12]: 100 % of control
- T/C (dose: 400.0 mg/kg/injection, schedule: Q01DX009 (ip), vehicle: saline with Tween-80): 109 % of control
- T/C [13]: 115 % of control
